The values below come from ChEMBL document CHEMBL5576044, “Inhibition of kynurenine production by N,O-substituted hydroxylamine derivatives” (Bioorg Med Chem Lett, 2024).

Active and inactive are the calls of the source. The calls are words filed in the database; no cut-off is given here. Some results are limits rather than exact numbers.

The test system of data set [1] is Mus musculus. Kind of data set: In vivo inhibition of kynurenine production in C57BL/6 mouse serum at 200 mg per mouse administered via oral dosing and measured after 2 hrs by LC-MS analysis. The class given is functional, organism-based.
A short description of data set [2]: Inhibition of kynurenine production in human SK-OV-3 cells. In kind it is functional, cell-based.
Data set [3] concerns Mus musculus. Description: In vivo inhibition of kynurenine production in C57BL/6 mouse serum at 200 mg per mouse administered via ip and measured after 2 hrs by LC-MS analysis. In kind it is functional, organism-based.
Data set [4] addresses Indoleamine 2,3-dioxygenase 1 (Homo sapiens) (UniProt P14902). Kind of data set: Inhibition of recombinant human IDO1 at 10 ug/ml relative to control. The note with it: dose 10.0 µg/ml.
The nature of data set [5]: Drug concentration in C57BL/6 mouse serum at 200 mg per mouse administered via oral dosing after 2 hrs by LC-MS analysis. The class given is ADME. The settings on record: read-out: Drug uptake.
Data set [6] can be described thus: Cytotoxicity against human SK-OV-3 cells. The class given is toxicity, cell-based.
Data set [7] in a line: Drug degradation in human SK-OV-3 cell culture supernatant. The class given is ADME, cell-based.
The nature of data set [8]: Drug metabolism in C57BL/6 mouse serum at 200 mg per mouse administered via IP measured after 2 hrs by LC-MS analysis. In kind it is ADME.
In data set [9] the target is Indoleamine 2,3-dioxygenase 1 (Homo sapiens) (UniProt P14902). Kind of data set: Inhibition of IDO1 in human SK-OV-3 cells. In kind it is cell-based.
Data set [10] in a line: Drug metabolism in C57BL/6 mouse serum at 200 mg per mouse administered via oral dosing measured after 2 hrs by LC-MS analysis. In kind it is ADME.
Data set [11] in a line: Drug concentration in C57BL/6 mouse serum at 200 mg per mouse administered via ip after 2 hrs by LC-MS analysis. The class given is ADME, organism-based. The note with it: read-out: Drug uptake.
Data set [12] is described as follows: Drug metabolism in human SK-OV-3 cell culture supernatant assessed as O-benzylhydroxylamine Hydrochloride formation after 24 hrs. The class given is ADME, cell-based. The note with it: sk-ov-3, 24 h.
In data set [13] the target is Signal transducer and activator of transcription 3 (Homo sapiens) (UniProt P40763). Description: Inhibition of STAT3 phosphorylation in IFN-gamma activated human A549 cells at 5 to 40 microg/ml by Western blotting analysis. The class given is cell-based. The note with it: dose 5-40 µg/ml.
Data set [14] has as its system A549. Description: Reduction in IFN-gamma activated IDO1 expression level in human A549 cells at 1.25 to 40 microg/ml by Western blotting analysis. In kind it is functional, cell-based. The settings on record: dose 1.25-40 µg/ml. (A western blot detects proteins with antibodies after separation by electrophoresis.)
Data set [15] is described as follows: Drug concentration in C57BL/6 mouse serum at 100 mg per mouse administered via oral dosing after 2 hrs by LC-MS analysis. In kind it is ADME. The settings on record: read-out: Drug uptake.
Data set [16] in a line: Drug metabolism in mouse serum assessed as N-Cbz-L-alanine formation after 1 hr. In kind it is ADME, cell-free.
A short description of data set [17]: Stability in mouse serum after 1 hr. The class given is ADME.
Data set [18] deals with Mus musculus. Description: In vivo inhibition of kynurenine production in iv dosed mouse serum by LC/MS analysis. The class given is functional, organism-based.
Data set [19] is described as follows: Drug metabolism in human SK-OV-3 cell culture supernatant assessed as O-4-nitrobenzyl hydroxylamine Hydrochloride formation after 24 hrs. In kind it is ADME, cell-based. The note with it: sk-ov-3, 24 h.
Data set [20] concerns Mus musculus. Description: In vivo inhibition of kynurenine production in C57BL/6 mouse serum at 100 mg per mouse administered via oral dosing and measured after 2 hrs by LC-MS analysis. The class given is functional, organism-based.

Indoleamine 2,3-dioxygenase 1 (Homo sapiens), sequence (P14902 whole entry, looked up): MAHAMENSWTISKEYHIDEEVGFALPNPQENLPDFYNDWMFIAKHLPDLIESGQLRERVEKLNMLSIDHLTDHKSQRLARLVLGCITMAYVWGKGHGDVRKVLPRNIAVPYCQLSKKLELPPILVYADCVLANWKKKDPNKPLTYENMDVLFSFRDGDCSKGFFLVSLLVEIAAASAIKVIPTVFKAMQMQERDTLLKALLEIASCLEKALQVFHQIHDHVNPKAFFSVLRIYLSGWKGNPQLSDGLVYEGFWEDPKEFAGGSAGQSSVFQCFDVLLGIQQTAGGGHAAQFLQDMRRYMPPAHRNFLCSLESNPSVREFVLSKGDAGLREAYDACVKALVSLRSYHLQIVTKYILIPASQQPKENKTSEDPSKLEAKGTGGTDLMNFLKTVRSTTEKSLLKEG
Signal transducer and activator of transcription 3 (Homo sapiens), sequence (P40763 whole entry): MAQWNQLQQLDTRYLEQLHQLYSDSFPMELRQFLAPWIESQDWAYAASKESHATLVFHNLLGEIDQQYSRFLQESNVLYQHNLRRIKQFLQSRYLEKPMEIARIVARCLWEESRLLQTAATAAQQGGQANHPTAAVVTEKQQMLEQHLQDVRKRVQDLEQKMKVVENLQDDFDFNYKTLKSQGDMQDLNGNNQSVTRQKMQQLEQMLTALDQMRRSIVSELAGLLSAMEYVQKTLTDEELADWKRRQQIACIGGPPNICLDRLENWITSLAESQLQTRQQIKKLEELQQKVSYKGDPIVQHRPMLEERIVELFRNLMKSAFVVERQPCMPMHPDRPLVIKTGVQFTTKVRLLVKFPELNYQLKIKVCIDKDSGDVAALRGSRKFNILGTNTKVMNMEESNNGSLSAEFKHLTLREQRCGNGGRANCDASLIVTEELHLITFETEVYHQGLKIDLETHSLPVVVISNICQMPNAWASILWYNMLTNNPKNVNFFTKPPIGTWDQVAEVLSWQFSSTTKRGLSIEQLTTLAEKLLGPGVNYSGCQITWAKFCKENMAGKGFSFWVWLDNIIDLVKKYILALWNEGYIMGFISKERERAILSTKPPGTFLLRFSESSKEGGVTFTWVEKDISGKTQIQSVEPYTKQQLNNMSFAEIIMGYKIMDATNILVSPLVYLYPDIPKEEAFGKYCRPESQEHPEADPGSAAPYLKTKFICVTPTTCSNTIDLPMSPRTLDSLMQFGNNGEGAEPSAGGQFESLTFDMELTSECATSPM

Consider `O=C(NOCc1ccc([N+](=O)[O-])cc1)C12CC3CC(CC(C3)C1)C2`, for which the inhibition entry in [1], in data set [3] and in data set [9] was “inactive” throughout. The figures for the IC50 in [2] and in data set [6] were 17 µM and greater than 100 µM, respectively. In [4], the inhibition (in general, the change of the read-out against control, counted positive when it falls) was determined as 12%. Besides, the results for the concentration at 2 h in data set [5] and in data set [11] were 3 nM and 18 nM, respectively. Further, the Stability result in [7] is listed as “Stable”. The Drug metabolism result in data set [8] and in [10] was “Metabolite_Detected” throughout.
`NOCc1ccccc1`: the IC50 (in general, the concentration that gives 50% inhibition) in data set [2] was 10 µM; in [6], greater than 100 µM. Also, in data set [4], the inhibition was 100%. The inhibition entry in [9] was “Active”.
On to `Cl.NOCc1ccc([N+](=O)[O-])cc1`, for which the IC50 in [2] is 8 µM; in data set [6], greater than 100 µM. For the same compound, the inhibition in data set [4] was 100%. Besides, the Stability result in data set [7] is “Unstable”. The inhibition result in [9] is “Active”.
Regarding `O=C(NOCc1ccc([N+](=O)[O-])cc1)[C@H](O)c1ccccc1`, the values for the concentration for half-maximal inhibition (IC50) in data set [2] and in [6] were 24 µM and greater than 100 µM, respectively. For the same compound, the inhibition in [4] is 9%. The inhibition entry in data set [9] was “inactive”.
Turning to `O=C(N[C@H](CO)C(=O)NOCc1ccccc1)OCc1ccccc1`, the IC50 in data set [2] was 5.1 µM; in data set [6], greater than 100 µM. In data set [4], the inhibition is 5.6%. For the same compound, the Drug metabolism result in [12] is given as “Metabolite_Detected”.
For `CC12CC3CC(C)(C1)CC(C(=O)NOCc1ccccc1)(C3)C2`, the IC50 in [2] and in [6] was greater than 100 µM in each case. In addition, the inhibition in [4] stood at 7.9%.
As to `O=C(N[C@@H](CO)C(=O)NOCc1ccccc1)OCc1ccccc1`, the results for the IC50 in data set [2] and in data set [6] were 4.6 µM and greater than 100 µM, respectively. The inhibition in data set [4] was 10%. The inhibition entry in data set [13] was “inactive”. For the same compound, in data set [9], the inhibition entry is “Active”. The result in data set [14] was inactive.
As for `O=C(N[C@@H](Cc1c[nH]c2ccccc12)C(=O)NOCc1ccccc1)OCc1ccccc1`, the figures for the half-inhibitory concentration (IC50) in data set [2] and in data set [6] were 12 µM and greater than 100 µM, respectively. In addition, in data set [4], the inhibition is 4.9%.
Turning to `NS(=O)(=O)NCCNc1nonc1C(=NO)Nc1ccc(F)c(Br)c1` [EPACADOSTAT], the concentration at 2 h in [15] turned out to be 1400 nM.
For `C[C@H](NC(=O)OCc1ccccc1)C(=O)NOCc1ccccc1`, in data set [16], the Drug metabolism result is “Metabolite_Detected”. Moreover, the results for the IC50 in [2] and in [6] were 5.2 µM and greater than 100 µM, respectively. The inhibition in [4] was -9.4%. In addition, the Stability result in data set [17] was “Unstable”. In addition, in [18], the inhibition entry is “inactive”.
With `N[C@@H](CO)C(=O)NOCc1ccccc1`, the IC50 in [2] was 5.5 µM; in data set [6] it was greater than 100 µM. Moreover, in [4], the inhibition came out at 0%.
For the compound `O=C(N[C@@H](CO)C(=O)NOCc1ccc([N+](=O)[O-])cc1)OCc1ccccc1`, the IC50 in data set [2] was 5.5 µM; in [6] it was greater than 100 µM. Moreover, the Drug metabolism result in [19] is recorded as “Metabolite_Detected”. Also, the inhibition in data set [4] was -9.2%. In addition, the inhibition result in [9] was “Active”.
On to `O=[N+]([O-])c1ccc(CONS(=O)(=O)Cc2ccccc2)cc1`, for which the concentration for half-maximal inhibition (IC50) in data set [2] and in [6] was greater than 100 µM in each case. Also, the inhibition in data set [4] is 0.19%.
As to `CONC(=O)[C@H](CO)NC(=O)OCc1ccccc1`, the IC50 in data set [2] and in data set [6] was greater than 100 µM in each case. Further, the inhibition in [4] is -8.3%.
On to `O=C(NOCc1ccc([N+](=O)[O-])cc1)C12CC3CC(CC(O)(C3)C1)C2`, for which the IC50 in data set [2] and in [6] was greater than 100 µM in each case. Moreover, the inhibition in data set [4] was -3.3%.
`O=C(N[C@@H](CO)C(=O)Nc1ccccc1O)OCc1ccccc1`: the 50% inhibitory concentration (IC50) in data set [2] and in data set [6] was greater than 100 µM throughout. Besides, in data set [4], the inhibition was determined as 2.9%.
On to `NS(=O)(=O)NCCNc1nonc1/C(=N/O)Nc1ccc(F)c(Br)c1`, for which, in data set [20], the inhibition entry is “Active”.
With `O=C(N[C@@H](CO)C(=O)NCCc1ccccc1)OCc1ccccc1`, the half-inhibitory concentration (IC50) in data set [2] and in data set [6] was greater than 100 µM in each case. The inhibition in [4] was -5.1%.
`O=C(N[C@@H](CO)C(=O)O)OCc1ccccc1`: the IC50 in data set [2] and in [6] was greater than 100 µM throughout. In addition, the inhibition in data set [4] is -5.5%.
